Experimental findings from patent publication US12084415B2, “Biomolecule-polymer-pharmaceutical agent conjugates for delivering the pharmaceutical agent” (Massachusetts Institute of Technology, priority 2021, dated 2024) are described below.

In the assay the test system is BT474 xenograft tumor. Briefly: Antitumor efficacy in BT474 xenograft tumor model. Conditions: for tumor volume at day 30: 3 doses.
Setting [1] is: PROTAC (ARV771) payload, 3 doses once a week.

Method: The antitumor efficacy was monitored thorough the measurement of tumor volume size.
We used the ABC platform for antibody targeted delivery of PROTAC to tumors for cancer therapy. We chose ARV771 as the payload. We used PROTAC-ABC (ABC_ARV771) to perform in vivo anti-cancer study. The HER2 overexpressed BT474 xenograft mice model was also used for this study. 6 different treatments were performed on mice bearing ˜50 mm^3 volume tumor. 3 doses for treatment were performed once a week.

Regarding `Cc1ncsc1-c1ccc([C@H](C)NC(=O)[C@@H]2C[C@@H](O)CN2C(=O)[C@@H](NC(=O)COCCCOCCNC(=O)C[C@@H]2N=C(c3ccc(Cl)cc3)c3c(sc(C)c3C)-n3c(C)nnc32)C(C)(C)C)cc1` [ARV771], the “tumor volume at day 30” value (PROTAC (ARV771) payload) is given as “no therapeutic effects”. For the same compound, the tumor volume entry under setting [1] is on record as “little therapeutic effects”. As for ado-trastuzumab emtansine [ADC], the tumor volume result (one dose injection, comparison with Kadcyla) is recorded as “good anticancer efficiency”. `Cc1sc2c(c1C)C(c1ccc(Cl)cc1)=N[C@@H](CC(=O)Nc1ccc(OCCOCCOCCOCCNc3cccc4c3C(=O)N(C3CCC(=O)NC3=O)C4=O)cc1)c1nnc(C)n1-2` (some centres unmarked) [ARV825]: where the note is “PROTAC (ARV771) payload”, the “tumor volume at day 30” value is “no therapeutic effects”. In addition, the tumor volume result under setting [1] is listed as “little therapeutic effects”.
